Measurements taken from BindingDB's records for doi:10.1021/jm010801s (2002).

Biological target: Cathepsin K (Oryctolagus cuniculus) (UniProt P43236)
Experiment: Inhibition of recombinant rabbit Cathepsin K in a fluorescence assay

Cathepsin K (Oryctolagus cuniculus), sequence (P43236 whole entry, looked up): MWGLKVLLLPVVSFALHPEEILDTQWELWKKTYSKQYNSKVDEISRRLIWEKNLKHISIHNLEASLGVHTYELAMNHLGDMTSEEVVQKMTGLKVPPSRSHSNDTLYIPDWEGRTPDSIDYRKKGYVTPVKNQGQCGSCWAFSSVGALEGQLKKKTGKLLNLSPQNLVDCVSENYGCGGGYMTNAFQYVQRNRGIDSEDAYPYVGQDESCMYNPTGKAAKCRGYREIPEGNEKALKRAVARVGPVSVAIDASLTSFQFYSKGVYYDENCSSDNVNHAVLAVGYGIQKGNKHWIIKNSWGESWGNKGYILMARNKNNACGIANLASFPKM

| Structure (SMILES) | IC50 [nM] |
| --- | --- |
| CC(C)C[C@H](NC(=O)OCc1ccccc1)C(=O)NCCNc1ccccc1 [[3-Methyl-1-(2-phenylamino-ethylcarbamoyl)-butyl]-carbamic acid benzyl ester] | 470 |
| CC(C)C[C@H](NC(=O)OCc1ccccc1)C(=O)NCCNc1cccc(Cl)c1 [{1-[2-(3-Chloro-phenylamino)-ethylcarbamoyl]-3-methyl-butyl}-carbamic acid benzyl ester] | > 1000 |
| COc1cccc(NCCNC(=O)[C@H](CC(C)C)NC(=O)OCc2ccccc2)c1 [{1-[2-(3-Methoxy-phenylamino)-ethylcarbamoyl]-3-methyl-butyl}-carbamic acid benzyl ester] | > 1000 |

More lines, in order of falling IC50, values ahead:

| IC50 [nM] | Structure (SMILES) |
| --- | --- |
| 460 | Cc1cccc(NCCNC(=O)[C@H](CC(C)C)NC(=O)OCc2ccccc2)c1 [[3-Methyl-1-(2-m-tolylamino-ethylcarbamoyl)-butyl]-carbamic acid benzyl ester] |
| 350 | CC(C)C[C@H](NC(=O)OCc1ccccc1)C(=O)NCCNc1ccc(Cl)cc1 [{1-[2-(4-Chloro-phenylamino)-ethylcarbamoyl]-3-methyl-butyl}-carbamic acid benzyl ester] |
| 190 | Cc1ccc(NCCNC(=O)[C@H](CC(C)C)NC(=O)OCc2ccccc2)cc1 [[3-Methyl-1-(2-p-tolylamino-ethylcarbamoyl)-butyl]-carbamic acid benzyl ester] |
